Experimental data: publication PMC11672294, “The Antipsychotic Drug Aripiprazole Suppresses Colorectal Cancer by Targeting LAMP2a to Induce RNH1/miR‐99a/mTOR‐Mediated Autophagy and Apoptosis” (Advanced Science, 2024)
Structures can show the parent of a compound that is named as a salt. Where two headings read alike, the source gives them in different places.

Tested on: HT29
Conditions: 72 h, 10 µM
Procedure, shortened: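 HT29 viability used WST-1 reduction (2 h, 37 °C, A450) after 72 h of treatment; screening compounds were tested singly at 10 µM, with dimethyl sulfoxide as the comparison.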

[1] = relative to DMSO, Relative cell viability (%)

SMILES: O=C1Nc2ccc(Cl)cc2[C@@](C#CC2CC2)(C(F)(F)F)O1 [Efavirenz]
- Relative cell viability (%) (relative to DMSO): 72.65%

SMILES: CCOc1cc2ncc(C#N)c(Nc3ccc(OCc4ccccn4)c(Cl)c3)c2cc1NC(=O)/C=C/CN(C)C [Neratinib (HKI-272)]
- Relative cell viability (%) (relative to DMSO): 97.84%

SMILES: CC(C)(C)NCC(O)COc1cccc2c1CCC(=O)N2 (stereo not drawn) [Carteolol HCl]
- Relative cell viability (%) (relative to DMSO): 86.67%

SMILES: O=C(C[S+]([O-])Cc1ccco1)NC/C=C\COc1cc(CN2CCCCC2)ccn1 (stereo not drawn) [Lafutidine]
- Relative cell viability (%) (relative to DMSO): 119.6%

SMILES: Cc1ccc(-n2nc(C(C)(C)C)cc2NC(=O)NCc2cc(F)ccc2Oc2ccc3c(cnn3CCO)c2)cc1 [Pexmetinib (ARRY-614)]
- Relative cell viability (%) (relative to DMSO): 47.01%

SMILES: CCCCc1nc(Cl)c(CO)n1Cc1ccc(-c2ccccc2-c2nn[nH]n2)cc1 [Losartan Potassium (DuP 753)]
- Relative cell viability (%) (relative to DMSO): 88.32%

SMILES: C=CCN1CC[C@]23c4c5ccc(O)c4O[C@H]2C(=O)CC[C@@]3(O)[C@H]1C5 [Naloxone HCl]
- Relative cell viability (%) (relative to DMSO): 95.63%

SMILES: CC(C)Oc1ccc(-c2nc(-c3cccc4c3CC[C@@H]4NCCO)no2)cc1C#N [Ozanimod (RPC1063)]
- Relative cell viability (%) (relative to DMSO): 47.01%

SMILES: CC(C)NCC(O)COc1ccc(CCOCC2CC2)cc1 (stereo not drawn) [Betaxolol hydrochloride (Betoptic)]
- Relative cell viability (%) [1]: 100.8%

SMILES: CCc1oc2ccccc2c1C(=O)c1cc(Br)c(O)c(Br)c1 [Benzbromarone]
- Relative cell viability (%) (relative to DMSO): 82.12%

SMILES: CC(C)(Sc1cc(C(C)(C)C)c(O)c(C(C)(C)C)c1)Sc1cc(C(C)(C)C)c(O)c(C(C)(C)C)c1 [Probucol]
- Relative cell viability (%) (relative to DMSO): 130.3%

SMILES: CN1CCC(=C2c3ccccc3CC(=O)c3sccc32)CC1 [Ketotifen Fumarate]
- Relative cell viability (%) (relative to DMSO): 182.5%

SMILES: COc1ccc(C[C@H](N)C(=O)N[C@H]2[C@@H](O)[C@H](n3cnc4c(N(C)C)ncnc43)O[C@@H]2CO)cc1 [Puromycin 2HCl]
- Relative cell viability (%) (relative to DMSO): 0%

SMILES: CCN(CC)CCNC(=O)c1c(C)[nH]c(/C=C2\C(=O)Nc3ccc(F)cc32)c1C [Sunitinib]
- Relative cell viability (%) (relative to DMSO): 29.06%

SMILES: CC(=O)c1cc2c(o1)C(=O)c1ccccc1C2=O [Napabucasin]
- Relative cell viability (%) (relative to DMSO): 0%

SMILES: CN(C)Cc1ccc(S(=O)(=O)n2ccc(/C=C/C(=O)NO)c2)cc1 [Resminostat]
- Relative cell viability (%) (relative to DMSO): 19.9%

SMILES: CC1(C)CCC(C)(C)c2cc(NC(=O)c3ccc(C(=O)O)cc3)ccc21 [Tamibarotene]
- Relative cell viability (%) (relative to DMSO): 94.85%

SMILES: O=C(O)c1cc(=O)c2ccccc2o1 [Chromocarb]
- Relative cell viability (%) (relative to DMSO): 81.21%

SMILES: O=C(CCCN1CCC(O)(c2ccc(Cl)cc2)CC1)c1ccc(F)cc1 [Haloperidol]
- Relative cell viability (%) (relative to DMSO): 29.34%

SMILES: COCCCC/C(=N\OCCN)c1ccc(C(F)(F)F)cc1 [Fluvoxamine maleate]
- Relative cell viability (%) (relative to DMSO): 72.74%

SMILES: CCc1c(Cl)c(O)c(Cl)c(O)c1C(=O)O[C@H]1[C@H](O)[C@H](OC)[C@H](OC/C2=C\C=C\C[C@H](O)/C(C)=C/[C@H](CC)[C@@H](O[C@@H]3OC(C)(C)[C@@H](OC(=O)C(C)C)[C@H](O)[C@@H]3O)/C(C)=C/C(C)=C/C[C@@H]([C@@H](C)O)OC2=O)O[C@@H]1C [Fidaxomicin]
- Relative cell viability (%) (ht29 cells): 94.85%

SMILES: COC(=O)C1=C(C)NC(C)=C(C(=O)OCC(C)C)C1c1ccccc1[N+](=O)[O-] (stereo not drawn) [Nisoldipine]
- Relative cell viability (%) (relative to DMSO): 56.36%

SMILES: CCOC(=O)c1ccc(OC(=O)CCCCCNC(=N)N)cc1 [Gabexate Mesylate]
- Relative cell viability (%) (relative to DMSO): 124.4%

SMILES: CCOC(=O)c1cncn1[C@H](C)c1ccccc1 [Etomidate]
- Relative cell viability (%) (relative to DMSO): 60.28%

SMILES: CCc1cccc2c3c([nH]c12)C(CC)(CC(=O)O)OCC3 (stereo not drawn) [Etodolac]
- Relative cell viability (%) (relative to DMSO): 86.76%

SMILES: N=C(N)c1ccc2cc(OC(=O)c3ccc(N=C(N)N)cc3)ccc2c1 [Nafamostat Mesylate]
- Relative cell viability (%) (relative to DMSO): 66.51%

SMILES: Cc1ccccc1C(=O)Nc1ccc(C(=O)N2CCCC(O)c3cc(Cl)ccc32)c(C)c1 (stereo not drawn) [Tolvaptan]
- Relative cell viability (%) (relative to DMSO): 54.85%

SMILES: OC(Cn1cncn1)(Cn1cncn1)c1ccc(F)cc1F [Fluconazole]
- Relative cell viability (%) (relative to DMSO): 66.51%

SMILES: NC(=O)Cc1cccc(C(=O)c2ccccc2)c1N [Nepafenac]
- Relative cell viability (%) (relative to DMSO): 77.41%

SMILES: COc1cc2nc(N3CCN(C(=O)C4CCCO4)CC3)nc(N)c2cc1OC (stereo not drawn) [Terazosin]
- Relative cell viability (%) [1]: 88.03%
